These results are taken from US7855292B2, “Sulfonamide compounds” (Janssen Pharmaceutica NV, priority 2004, dated 2010).

One experiment concerns the target T1, CCK-1 receptor (Homo sapiens, UniProt P32238).
T1 construct: expressed in transfected cells; host or cells: CHO-K1
T1 sequence (P32238 1-428): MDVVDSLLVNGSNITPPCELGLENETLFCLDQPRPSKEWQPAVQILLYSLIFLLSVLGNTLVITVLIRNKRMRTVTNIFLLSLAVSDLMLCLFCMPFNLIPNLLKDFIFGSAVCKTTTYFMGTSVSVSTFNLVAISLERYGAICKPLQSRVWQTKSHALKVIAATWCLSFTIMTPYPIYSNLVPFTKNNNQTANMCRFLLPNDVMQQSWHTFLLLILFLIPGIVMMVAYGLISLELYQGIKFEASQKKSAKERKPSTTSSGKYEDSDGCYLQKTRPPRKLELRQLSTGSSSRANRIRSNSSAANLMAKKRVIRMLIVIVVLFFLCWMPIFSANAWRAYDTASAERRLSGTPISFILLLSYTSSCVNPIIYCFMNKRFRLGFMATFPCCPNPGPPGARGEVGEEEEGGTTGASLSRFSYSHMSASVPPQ
In words: CCK1 binding assay ([125I]-BH-CCK-8S displacement, CHO-K1 membranes). To be noted: membranes of CHO-K1 cells stably transfected with the CCK-1 receptor, 20 pM [125I]-BH-CCK-8S, 0.3 μM PD-134,308 present, 60 min at 21±3° C.; for Ki: read-out: CCK1 pKi (converted). In outline: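 Membranes from CHO-K1 cells stably expressing CCK-1 incubated 1 h at 21±3° C with 20 pM [125I]-BH-CCK-8S in HEPES buffer pH 7.2 containing 0.3 μM PD-134,308 to block CCK-2. Bound radioactivity read by gamma counting after filtration. pKi derived via Cheng-Prusoff, with specific binding defined using 2-NAP.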

The target of the next experiment is T2, CCK2 receptor (Homo sapiens, UniProt P32239).
T2 construct: analyzed for ZFP expression as well as CCK2R induction upon addition of doxycycline to the culture medium; endogenous in cells
T2 sequence (P32239 1-447): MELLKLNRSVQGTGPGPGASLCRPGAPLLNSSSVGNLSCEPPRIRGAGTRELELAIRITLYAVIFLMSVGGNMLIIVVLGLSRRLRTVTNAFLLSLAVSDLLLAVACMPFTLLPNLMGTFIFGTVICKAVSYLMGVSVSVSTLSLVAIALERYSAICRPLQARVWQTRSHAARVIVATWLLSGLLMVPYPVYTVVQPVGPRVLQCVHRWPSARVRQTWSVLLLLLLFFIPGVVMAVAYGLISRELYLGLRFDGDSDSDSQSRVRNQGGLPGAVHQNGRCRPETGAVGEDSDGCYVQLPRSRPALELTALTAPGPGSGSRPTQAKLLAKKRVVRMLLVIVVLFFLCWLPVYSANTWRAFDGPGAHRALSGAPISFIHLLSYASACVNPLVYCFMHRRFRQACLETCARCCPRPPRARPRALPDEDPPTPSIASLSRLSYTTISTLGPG
The experiment can be described thus: CCK2 binding assay ([125I]-BH-CCK-8S displacement, HEKZFP membranes). As to conditions: membranes of doxycycline-induced HEKZFP cells, 20 pM [125I]-BH-CCK-8S, 60 min at 21±3° C.; for Ki: read-out: CCK2 pKi (converted).

Regarding `CC(CNC(=O)c1ccc(Br)cc1NS(=O)(=O)c1cccc2nsnc12)c1ccc(Cl)cc1` (stereo not drawn) [Example 21, 2-(Benzo[1,2,5]thiadiazole-4-sulfonylamino)-4-bromo-N-[2-(4-chloro-phenyl)-propyl]-benzamide], the figures for the Ki on CCK-1 receptor and at CCK2 receptor were 0.126 µM and 1 µM, respectively.
The like results for `CC(Cc1ccc(Cl)cc1)NC(=O)c1ccc(C(F)(F)F)cc1NS(=O)(=O)c1cccc2nsnc12` (stereo not drawn) [Example 22, 2-(Benzo[1,2,5]thiadiazole-4-sulfonylamino)-N-[2-(4-chloro-phenyl)-1-methyl-ethyl]-4-trifluoromethyl-benzamide] were, in that order, 0.501 µM and 0.631 µM.
With `CC(Cc1ccc(Cl)cc1)NC(=O)c1ccc(Br)cc1NS(=O)(=O)c1cccc2scnc12` (stereo not drawn) [Example 23, 2-(Benzothiazole-4-sulfonylamino)-4-bromo-N-[2-(4-chloro-phenyl)-1-methyl-ethyl]-benzamide], the Ki at CCK-1 receptor was 1 µM; at CCK2 receptor, 0.631 µM.
For `CC(CNC(=O)c1ccc(Br)cc1NS(=O)(=O)c1c(F)cccc1F)c1ccc(Cl)cc1` (stereo not drawn) [Example 24, 4-Bromo-N-[2-(4-chloro-phenyl)-propyl]-2-(2,6-difluoro-benzenesulfonylamino)-benzamide] the same measures were 0.1 µM and 1.26 µM.
The like results for `O=C(N[C@@H](Cc1ccccc1)C(=O)O)c1ccc(C(F)(F)F)cc1NS(=O)(=O)c1cccc2nsnc12` [Example 26, 2-[2-(Benzo[1,2,5]thiadiazole-4-sulfonylamino)-4-trifluoromethyl-benzoylamino]-3-phenyl-propionic acid] were, in that order, 2.51 µM and 0.0398 µM.
For `O=C(N[C@@H](Cc1ccccc1)C(=O)O)c1cc(Cl)c(Cl)cc1NS(=O)(=O)c1cccc2nccnc12` [Example 29, 2-[4,5-Dichloro-2-(quinoxaline-5-sulfonylamino)-benzoylamino]-3-phenyl-propionic acid] the same measures were 6.31 µM and 0.0794 µM.
For the compound `CC(CNC(=O)c1ccc(Br)cc1NS(=O)(=O)c1c(F)cccc1F)c1ccc(Cl)c(Cl)c1` (stereo not drawn) [Example 30, 4-Bromo-N-[2-(3,4-dichloro-phenyl)-propyl]-2-(2,6-difluoro-benzenesulfonylamino)-benzamide], the Ki is 0.0631 µM on CCK-1 receptor and 2.51 µM on CCK2 receptor.
In the case of `CC(CNC(=O)c1ccc(Br)cc1NS(=O)(=O)c1cccc2nsnc12)c1ccccc1` (stereo not drawn) [Example 31, 2-(Benzo[1,2,5]thiadiazole-4-sulfonylamino)-4-bromo-N-(2-phenyl-propyl)-benzamide], the “CCK1 pKi” value at CCK-1 receptor stood at 7.1. Also, the “CCK2 pKi” value at CCK2 receptor stood at 6.2.
With `O=C(N[C@@H](Cc1ccc(Cl)c(Cl)c1)C(=O)O)c1ccc(I)cc1NS(=O)(=O)c1c(F)cccc1F` [Example 32, 3-(3,4-Dichloro-phenyl)-2-[2-(2,6-difluoro-benzenesulfonylamino)-4-iodo-benzoylamino]-propionic acid], the Ki was 0.398 µM on CCK-1 receptor and 0.1 µM at CCK2 receptor.
Regarding `O=C(N[C@@H](Cc1ccc(Cl)cc1)C(=O)O)c1ccc(I)cc1NS(=O)(=O)c1cccc2nsnc12` [Example 33, 2-[2-(Benzo[1,2,5]thiadiazole-4-sulfonylamino)-4-iodo-benzoylamino]-3-(4-chloro-phenyl)-propionic acid], the Ki on CCK-1 receptor was 0.158 µM; at CCK2 receptor, 0.0398 µM.
Take `O=C(N[C@@H](Cc1ccc(Cl)cc1)C(=O)O)c1ccc(I)cc1NS(=O)(=O)c1c(F)cccc1F` [Example 34, 3-(4-Chloro-phenyl)-2-[2-(2,6-difluoro-benzenesulfonylamino)-4-iodo-benzoylamino]-propionic acid]: the Ki on CCK-1 receptor is 0.398 µM; on CCK2 receptor, 0.1 µM.
With `C[C@H](CNC(=O)c1ccc(Br)cc1NS(=O)(=O)c1cccc2nsnc12)c1ccccc1` [Example 35, (S)-2-(Benzo[1,2,5]thiadiazole-4-sulfonylamino)-4-bromo-N-(2-phenyl-propyl)-benzamide], the “CCK1 pKi” value on CCK-1 receptor stood at 7.2. Further, the “CCK2 pKi” value on CCK2 receptor is 6.3.
For the compound `C[C@@H](CNC(=O)c1ccc(Br)cc1NS(=O)(=O)c1cccc2nsnc12)c1ccccc1` [Example 36, (R)-2-(Benzo[1,2,5]thiadiazole-4-sulfonylamino)-4-bromo-N-(2-phenyl-propyl)-benzamide], on CCK-1 receptor, the “CCK1 pKi” value came to 7.1. Moreover, the “CCK2 pKi” value on CCK2 receptor stood at 5.8.
In the case of `C[C@H](CNC(=O)c1ccc(Br)cc1NS(=O)(=O)c1c(F)cccc1F)c1ccccc1` [Example 37, (S)-4-Bromo-2-(2,6-difluoro-benzenesulfonylamino)-N-(2-phenyl-propyl)-benzamide], the figures for the Ki on CCK-1 receptor and at CCK2 receptor were 0.398 µM and 3.98 µM, respectively.
With `C[C@@H](CNC(=O)c1ccc(Br)cc1NS(=O)(=O)c1c(F)cccc1F)c1ccccc1` [Example 38, (R)-4-Bromo-2-(2,6-difluoro-benzenesulfonylamino)-N-(2-phenyl-propyl)-benzamide], the Ki is 0.316 µM on CCK-1 receptor and 2 µM on CCK2 receptor.
Take `CC(CNC(=O)c1ccc(I)cc1NS(=O)(=O)c1cccc2nsnc12)c1ccc(Cl)c(Cl)c1` (stereo not drawn) [Example 39, 2-(Benzo[1,2,5]thiadiazole-4-sulfonylamino)-N-[2-(3,4-dichloro-phenyl)-propyl]-4-iodo-benzamide]: the results for the Ki on CCK-1 receptor and on CCK2 receptor were 0.0251 µM and 0.251 µM, respectively.
The like results for `CC(CNC(=O)c1ccc(I)cc1NS(=O)(=O)c1cccc2nccnc12)c1ccc(Cl)c(Cl)c1` (stereo not drawn) [Example 40, N-[2-(3,4-Dichloro-phenyl)-propyl]-4-iodo-2-(quinoxaline-5-sulfonylamino)-benzamide] were, in that order, 0.126 µM and 0.316 µM.
Turning to `O=C(N[C@@H](Cc1ccc(Cl)cc1Cl)C(=O)O)c1ccc(Br)cc1NS(=O)(=O)c1c(F)cccc1F` [Example 41, 2-[4-Bromo-2-(2,6-difluoro-benzenesulfonylamino)-benzoylamino]-3-(2,4-dichloro-phenyl)-propionic acid], the figures for the Ki on CCK-1 receptor and at CCK2 receptor were 0.631 µM and 0.0501 µM, respectively.
The like results for `CC(CNC(=O)c1ccc(I)cc1NS(=O)(=O)c1c(F)cccc1F)c1ccc(Cl)c(Cl)c1` (stereo not drawn) [Example 42, N-[2-(3,4-Dichloro-phenyl)-propyl]-2-(2,6-difluoro-benzenesulfonylamino)-4-iodo-benzamide] were, in that order, 0.0316 µM and 3.16 µM.
Turning to `CC(CNC(=O)c1ccc(Cl)cc1NS(=O)(=O)c1c(F)cccc1F)c1ccc(Cl)cc1Cl` (stereo not drawn) [Example 43, 4-Chloro-N-[2-(2,4-dichloro-phenyl)-propyl]-2-(2,6-difluoro-benzenesulfonylamino)-benzamide], the Ki is 0.126 µM on CCK-1 receptor and 0.251 µM at CCK2 receptor.
The like results for `CC(CNC(=O)c1ccc(Cl)cc1NS(=O)(=O)c1c(F)cccc1F)c1ccc([N+](=O)[O-])cc1` (stereo not drawn) [Example 44, 4-Chloro-2-(2,6-difluoro-benzenesulfonylamino)-N-[2-(4-nitro-phenyl)-propyl]-benzamide] were, in that order, 0.1 µM and 3.98 µM.
Consider `CC(CNC(=O)c1ccc(Cl)cc1NS(=O)(=O)c1c(F)cccc1F)c1ccc(C(F)(F)F)cc1` (stereo not drawn) [Example 45, 4-Chloro-2-(2,6-difluoro-benzenesulfonylamino)-N-[2-(4-trifluoromethyl-phenyl)-propyl]-benzamide], for which the figures for the Ki on CCK-1 receptor and at CCK2 receptor were 0.251 µM and 1.58 µM, respectively.
The like results for `O=C(N[C@H](Cc1ccc(Cl)cc1Cl)C(=O)O)c1ccc(Cl)cc1NS(=O)(=O)c1c(F)cccc1F` [Example 46, 2-[4-Chloro-2-(2,6-difluoro-benzenesulfonylamino)-benzoylamino]-3-(2,4-dichloro-phenyl)-propionic acid] were, in that order, 1.58 µM and 0.0631 µM.
For `CC(CNC(=O)c1ccc(I)cc1NS(=O)(=O)c1c(F)cccc1F)c1ccc(Cl)cc1Cl` (stereo not drawn) [Example 47, N-[2-(2,4-Dichloro-phenyl)-propyl]-2-(2,6-difluoro-benzenesulfonylamino)-4-iodo-benzamide] the same measures were 0.1 µM and 5.01 µM.
